Read-outs that look alike come from different tables or passages of the source.
Tests used:
[1] = tested on: human mononuclear cells (PBMC) stimulated with staphylococcal enterotoxin B (SEB); experiment: cells; assay type: cell-based
[2] = target: T1, LFA-1 (Homo sapiens, UniProt P20701); conditions: at greater than 90% occupancy of LFA-1; cited from earlier work
T1 construct: greater than 90% occupancy of LFA-1 with efalizumab led to a greater than 50% clinical improvement in PASI score in a clinical trial; host or cells: leukocytes of psoriasis patients (in vivo)
T1 sequence (P20701 26-1170): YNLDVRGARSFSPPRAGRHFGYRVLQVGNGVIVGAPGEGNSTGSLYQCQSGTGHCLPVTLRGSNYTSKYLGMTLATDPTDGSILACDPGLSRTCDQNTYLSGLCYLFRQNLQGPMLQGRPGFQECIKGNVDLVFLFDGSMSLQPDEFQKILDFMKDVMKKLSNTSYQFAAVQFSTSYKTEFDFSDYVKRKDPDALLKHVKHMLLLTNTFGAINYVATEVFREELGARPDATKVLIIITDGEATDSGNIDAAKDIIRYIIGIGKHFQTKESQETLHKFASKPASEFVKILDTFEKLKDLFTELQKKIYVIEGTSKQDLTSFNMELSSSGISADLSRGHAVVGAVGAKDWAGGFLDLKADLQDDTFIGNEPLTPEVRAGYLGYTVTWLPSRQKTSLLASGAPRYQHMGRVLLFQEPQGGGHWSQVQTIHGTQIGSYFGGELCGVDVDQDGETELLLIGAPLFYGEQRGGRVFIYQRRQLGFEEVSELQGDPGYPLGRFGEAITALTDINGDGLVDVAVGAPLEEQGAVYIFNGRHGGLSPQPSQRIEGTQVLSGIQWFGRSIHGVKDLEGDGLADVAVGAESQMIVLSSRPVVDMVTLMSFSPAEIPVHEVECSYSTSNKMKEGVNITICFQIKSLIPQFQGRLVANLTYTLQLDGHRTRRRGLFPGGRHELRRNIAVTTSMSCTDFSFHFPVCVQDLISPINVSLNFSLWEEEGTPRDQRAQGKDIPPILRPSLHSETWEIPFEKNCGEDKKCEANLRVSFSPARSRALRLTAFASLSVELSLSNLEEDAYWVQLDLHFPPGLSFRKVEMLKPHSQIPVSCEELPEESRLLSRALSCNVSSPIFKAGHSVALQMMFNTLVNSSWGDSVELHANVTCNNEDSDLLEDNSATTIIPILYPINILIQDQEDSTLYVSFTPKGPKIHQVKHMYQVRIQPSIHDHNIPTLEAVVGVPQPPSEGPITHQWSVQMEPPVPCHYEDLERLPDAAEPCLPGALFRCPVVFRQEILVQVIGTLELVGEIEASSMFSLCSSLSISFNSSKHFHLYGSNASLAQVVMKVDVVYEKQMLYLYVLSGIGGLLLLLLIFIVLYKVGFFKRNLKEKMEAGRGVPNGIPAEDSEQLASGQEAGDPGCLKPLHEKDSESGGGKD
T1 sequence (P05107 23-769 partner): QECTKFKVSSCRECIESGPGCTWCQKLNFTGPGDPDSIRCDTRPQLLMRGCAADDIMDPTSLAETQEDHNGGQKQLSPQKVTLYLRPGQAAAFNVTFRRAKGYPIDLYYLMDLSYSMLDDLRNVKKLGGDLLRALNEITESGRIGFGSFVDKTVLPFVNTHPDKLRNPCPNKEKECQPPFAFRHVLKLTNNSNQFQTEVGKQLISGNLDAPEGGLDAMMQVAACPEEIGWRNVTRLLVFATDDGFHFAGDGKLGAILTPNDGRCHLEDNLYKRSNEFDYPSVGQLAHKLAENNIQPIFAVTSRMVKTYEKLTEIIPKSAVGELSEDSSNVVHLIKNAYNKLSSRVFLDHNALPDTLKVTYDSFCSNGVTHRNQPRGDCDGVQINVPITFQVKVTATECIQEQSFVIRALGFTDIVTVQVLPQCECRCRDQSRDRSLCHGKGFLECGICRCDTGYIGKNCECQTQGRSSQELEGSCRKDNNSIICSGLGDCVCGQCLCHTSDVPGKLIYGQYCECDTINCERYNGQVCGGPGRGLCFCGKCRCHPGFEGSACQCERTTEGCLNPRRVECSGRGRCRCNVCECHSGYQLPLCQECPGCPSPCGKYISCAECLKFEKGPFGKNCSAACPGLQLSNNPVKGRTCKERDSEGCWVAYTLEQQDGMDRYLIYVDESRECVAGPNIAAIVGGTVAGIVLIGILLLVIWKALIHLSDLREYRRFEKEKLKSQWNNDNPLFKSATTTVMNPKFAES

Compound	EC50 ([1]; read-out: EC50 Cytokine Release GM-CSF) [µM]	EC50 ([1]; read-out: EC50 Cytokine Release IFNγ) [µM]	EC50 ([1]; read-out: EC50 Cytokine Release IL-1α) [µM]	EC50 ([1]; read-out: EC50 Cytokine Release IL-1β) [µM]	EC50 ([1]; read-out: EC50 Cytokine Release IL-2) [µM]	EC50 ([1]; read-out: EC50 Cytokine Release IL-3) [µM]	EC50 ([1]; read-out: EC50 Cytokine Release IL-4) [µM]	EC50 ([1]; read-out: EC50 Cytokine Release IL-5) [µM]	EC50 ([1]; read-out: EC50 Cytokine Release IL-6) [µM]	EC50 ([1]; read-out: EC50 Cytokine Release IL-10) [µM]	EC50 ([1]; read-out: EC50 Cytokine Release IL-12p40) [µM]	EC50 ([1]; read-out: EC50 Cytokine Release IL-13) [µM]	EC50 ([1]; read-out: EC50 Cytokine Release IP-10) [µM]	EC50 ([1]; read-out: EC50 Cytokine Release MCP-1) [µM]	EC50 ([1]; read-out: EC50 Cytokine Release MIP-1α) [µM]	EC50 ([1]; read-out: EC50 Cytokine Release TNF-α) [µM]	clinical improvement in PASI score [2]
O=C(NC(Cc1cc(=O)[nH]c2ccccc12)C(=O)O)c1ccc(Cl)cc1 (centres unmarked) [Rebamipide, reference compound]	> 1000	> 1000	> 1000	> 1000	> 1000	> 1000	> 1000	> 1000	> 1000	> 1000	> 1000	> 1000	> 1000	> 1000	> 1000	> 1000	–
efalizumab: antibody binding LFA-1, clinical trial in plaque psoriasis	–	–	–	–	–	–	–	–	–	–	–	–	–	–	–	–	greater than 50%

Source: patent US20090258069A1, “Delivery of LFA-1 antagonists to the gastrointestinal system” (priority 2008, published 2009)
